Tests used:
Format in all cases: organism-based
[1] = tested on: Solanum tuberosum; assay: Toxicity against Solanum tuberosum Superior (potato) assessed as decrease in crop injury at 100 g ai/ha preemergence application measured at 28 days after crop emergence; design: scale not given: the % may be the effect or the level left; conditions: in vivo, other, 672 h
[2] = tested on: Capsicum annuum; assay: Toxicity against Capsicum annuum Socrates (pepper) assessed as dose required to cause 5% visible injury applied within 3 days prior to transplantation measured at 28 days after crop transplanting; conditions: in vivo, 672 h
[3] = tested on: Solanum lycopersicum; assay: Toxicity against Solanum lycopersicum (tomato) H9909 assessed as decrease in crop injury at 100 g ai/ha pretransplant application measured at 28 days after crop transplanting; design: scale not given: the % may be the effect or the level left; conditions: in vivo, other, 672 h
[4] = tested on: Solanum lycopersicum; assay: Toxicity against Solanum lycopersicum (tomato) H9909 assessed as dose required to cause 5% yield loss applied within 3 days prior to transplantation measured at maturity of the crop; conditions: in vivo, 72 h
[5] = tested on: Capsicum annuum; assay: Toxicity against Capsicum annuum Socrates (pepper) assessed as reduction in plant dry weight at 100 g ai/ha pretransplant application measured at 28 days after crop transplanting; design: scale not given: the % may be the effect or the level left; conditions: in vivo, other, 672 h
[6] = tested on: Solanum tuberosum; assay: Toxicity against Solanum tuberosum Superior (potato) assessed as reduction in plant dry weight at 100 g ai/ha preemergence application measured at 28 days after crop emergence; design: scale not given: the % may be the effect or the level left; conditions: in vivo, other, 672 h
[7] = tested on: Solanum tuberosum; assay: Toxicity against Solanum tuberosum Superior (potato) assessed as dose required to cause 5% yield loss applied within 3 days after seeding measured at maturity of the crop; conditions: in vivo, 72 h
[8] = tested on: Solanum lycopersicum; assay: Toxicity against Solanum lycopersicum (tomato) H9909 assessed as decrease in marketable yield at 100 g ai/ha pretransplant application measured at maturity of the crop; design: scale not given: the % may be the effect or the level left; conditions: in vivo, other
[9] = tested on: Solanum lycopersicum; assay: Toxicity against Solanum lycopersicum (tomato) H9909 assessed as reduction in plant dry weight at 100 g ai/ha pretransplant application measured at 28 days after crop transplanting; design: scale not given: the % may be the effect or the level left; conditions: in vivo, other, 672 h
[10] = tested on: Solanum lycopersicum; assay: Toxicity against Solanum lycopersicum (tomato) H9909 assessed as dose required to cause 5% visible injury applied within 3 days prior to transplantation measured at 28 days after crop transplanting; conditions: in vivo, 672 h
[11] = tested on: Capsicum annuum; assay: Toxicity against Capsicum annuum Socrates (pepper) assessed as decrease in crop injury at 100 g ai/ha pretransplant application measured at 28 days after crop transplanting; design: scale not given: the % may be the effect or the level left; conditions: in vivo, other, 672 h
[12] = tested on: Solanum tuberosum; assay: Toxicity against Solanum tuberosum Superior (potato) assessed as dose required to cause 5% growth reduction applied within 3 days after seeding measured at 28 days after crop emergence; conditions: in vivo
[13] = tested on: Capsicum annuum; assay: Toxicity against Capsicum annuum Socrates (pepper) assessed as dose required to cause 5% yield loss applied within 3 days prior to transplantation measured at maturity of the crop; conditions: in vivo, 72 h
[14] = tested on: Capsicum annuum; assay: Toxicity against Capsicum annuum Socrates (pepper) assessed as dose required to cause 5% growth reduction applied within 3 days prior to transplantation measured at 28 days after crop transplanting; conditions: in vivo, 672 h
[15] = tested on: Solanum tuberosum; assay: Toxicity against Solanum tuberosum Superior (potato) assessed as decrease in marketable yield at 100 g ai/ha preemergence application measured at maturity of the crop; design: scale not given: the % may be the effect or the level left; conditions: in vivo, other
[16] = tested on: Solanum lycopersicum; assay: Toxicity against Solanum lycopersicum (tomato) H9909 assessed as dose required to cause 5% growth reduction applied within 3 days prior to transplantation measured at 28 days after crop transplanting; conditions: in vivo, 672 h
[17] = tested on: Capsicum annuum; assay: Toxicity against Capsicum annuum Socrates (pepper) assessed as decrease in marketable yield at 100 g ai/ha pretransplant application measured at maturity of the crop; design: scale not given: the % may be the effect or the level left; conditions: in vivo, other
[18] = tested on: Solanum tuberosum; assay: Toxicity against Solanum tuberosum Superior (potato) assessed as dose required to cause 5% visible injury applied within 3 days after seeding measured at 28 days after crop emergence; conditions: in vivo, 672 h
[19] = tested on: Capsicum annuum; assay: Toxicity against Capsicum annuum (pepper) assessed as crop injury at 420 g ai/ha pretransplant application; conditions: in vivo, other

**Q.** With `CC(C)N(C)S(=O)(=O)NC(=O)c1cc(-n2c(=O)cc(C(F)(F)F)n(C)c2=O)c(F)cc1Cl` [SAFLUFENACIL] as the molecule, how does the Activity [1] read?
**A.** 5%

**Q.** What about the Activity [2] of the same molecule?
**A.** 15.4 gAi/ha

**Q.** And the Activity [3]?
**A.** 29%

**Q.** And the Activity [4]?
**A.** 8.8 gAi/ha

**Q.** And the Activity [5]?
**A.** 82%

**Q.** And the Activity [6]?
**A.** 30%

**Q.** And the Activity [7]?
**A.** 19.7 gAi/ha

**Q.** What about the Activity [8] of the same molecule?
**A.** 57%

**Q.** What about the Activity [9] of the same molecule?
**A.** 73%

**Q.** And the Activity [10]?
**A.** 17.5 gAi/ha

**Q.** And the Activity [11]?
**A.** 32%

**Q.** What about the Activity [12] of the same molecule?
**A.** 15.5 gAi/ha

**Q.** What about the Activity [13] of the same molecule?
**A.** 7 gAi/ha

**Q.** And the Activity [14]?
**A.** 5.6 gAi/ha

**Q.** What about the Activity [15] of the same molecule?
**A.** 18%

**Q.** What about the Activity [16] of the same molecule?
**A.** 6.7 gAi/ha

**Q.** What about the Activity [17] of the same molecule?
**A.** 69%

**Q.** And the Activity [18]?
**A.** 105 gAi/ha

**Q.** How did the Activity [19] turn out when `Cc1nn(-c2cc(NS(C)(=O)=O)c(Cl)cc2Cl)c(=O)n1C(F)F` [SULFENTRAZONE] was run?
**A.** 65%
